Data taken from US11026953B2, “3-beta-hydroxy-5-alpha-pregnan-20-one for use in treatment of essential tremor” (ASARINA PHARMA AB, priority 2017, dated 2021).

Key:
[1] = target: T1, human alpha4,beta3,delta GABAA receptor (Homo sapiens, UniProt P28472+P48169); assay: Patch-clamp (Dynaflow) current response in HEK-293 cells expressing the human alpha4,beta3,delta GABAA receptor; format: cell-based
T1 construct: expressed in transfected cells
Protocol: (§1) Assay for testing GABAA receptor effects of 3beta-hydroxy-5alpha-pregnan-20-one on human alpha1,beta,gamma and alpha4,beta,delta GABAA receptor subtype.
(§2) In these tests the protocol was optimized to be similar to the physiological conditions in the synaptic cleft.
(§3) Cell culture: HEK-293 cells, permanently transfected with the human alpha1,beta,gamma and alpha4,beta,delta GABAA receptor subtypes, were seeded at a density of 3×10^4/25 cm^2 in cellbind culture flask. The transfected cells were used for patch-clamp experiments 3 days after seeding. When using the cells for patch-clamp experiments the cells were washed twice with oxygen-bubbled extracellular (EC) solution (see below). About 5 mL EC was then added and the cells were kept in the incubator for about 15 minutes. After 15 minutes the cells came loose from the bottom of the flask and were separated by carefully sucking couple of times with a Pasteur pipette.
(§4) DYNAFLOW™ system with Resolve chip was used for patch-clamp experiments: The electrophysiological recordings from HEK-293 cells were performed under voltage-clamp conditions using patch-clamp technique and the DYNAFLOW™ system (DYNAFLOW™ Pro II Platform Zeiss Axiovert 25; Cellectricon AB, Sweden) with Resolve chips as application system.
(§5) Patch pipettes were pulled from borosilicate glass and polished to a resistance 2-5 MΩ when filled with suitable intracellular solution (IC) (pH was adjusted to 7.2) and immersed in bath solution (extracellular, EC) (pH is adjusted to 7.4). The recordings were made using an Axopatch 200B amplifier, a Digidata 1322A (Axon instruments, Foster city, USA). Data were acquired using the pCLAMP software sampled at 10 kHz, filtered at 2-10 kHz and analyzed with Clampfit (versions 9.0, both from Axon instruments, Foster city, USA). No higher series resistance than 20 MΩ between pipette and cell membrane was accepted. No series resistance compensation was used. The stability of series resistance was monitored repeatedly from the time course of capacitative transients during the experiments. The measured liquid-junction potential between EC and IC was subtracted in all data presented. An experiments were performed at room temperature (21-23° C.).
(§6) All steroids were dissolved to the concentration of 6 mM in DMSO. […] End solutions were the solutions added into the wells of the chip.
(§7) Electrophysiology: After compensating for the liquid junction potential a steady holding potential of −17 mV was used in all experiments. […] By using the holding potential of −17 mV and the intracellular solution with low chloride ion concentration the chloride ions flux into the cell when the receptors were activated.
The DYNAFLOW™ system allowed application of solutions for as short as 40 ms up to minutes in time. […] Therefore, the first GABA application was always repeated twice and the second response was used in the analysis.
Washout: GABA is quite soluble in water and easy to washout from the receptor. […] Steroids on the other hand were difficult to dissolve in water and also difficult to washout from the receptor. In the experiments, THDOC and 3alpha-OH-adiol were used as the positive GABAA receptor modulating steroids. With 2 minutes washout time, 200 nM THDOC and 3alpha-OH-adiol was completely washed out as shown by neither an accumulative nor a desensitization effect.
(§8) Different incubation times were studied to achieve the optimal time for attain stable results and minimize the washout time.
(§9) Biological evaluation—HEK-293 cells, permanently transfected with human alpha1,beta,gamma and alpha4,beta,delta GABAA receptor subtypes and expressing these GABAA receptors.
Cell lines permanently expressing a functional human GABAA receptor was made in following steps. The GABAA receptor subunits alpha1,beta2,gamma2L or alpha4,beta3,delta including introduced Kozac sequences just before the start codons were subcloned into mammalian expression vectors containing Geneticin, Hygromycin B, and Zeocin resistance, respectively. […]

[2] = target: T2, human alpha1,beta2,gamma2 GABAA receptor (Homo sapiens, UniProt P14867+P47870); assay: Patch-clamp (Dynaflow) current response in HEK-293 cells expressing the human alpha1,beta2,gamma2 GABAA receptor; format: cell-based; details: for Androstandiol effect by itself (baseline shift), current response in absence of GABA: no GABA; for Antagonism of THDOC enhanced GABA effect, single dose: 1 μM UC1010 + 30 μM GABA + 200 nM THDOC; for Imax, maximal antagonism of THDOC effect in concentration-dependent experiment: 0.1-1 μM UC1010 + 30 μM GABA + 200 nM THDOC, max reached at 1 μM
T2 construct: expressed in transfected cells
Protocol: as §1, §2, §3, §4, §5, §6, §7
The DYNAFLOW™ system allowed application of solutions for as short as 40 ms up to minutes in time.
In the experiments, THDOC and 3alpha-OH-adiol were used as the positive GABAA receptor modulating steroids.
as §8, §9
Cell lines permanently expressing a functional human GABAA receptor was made in following steps. The GABAA receptor subunits alpha1,beta2,gamma2L or alpha4,beta3,delta including introduced Kozac sequences just before the start codons were subcloned into mammalian expression vectors containing Geneticin, Hygromycin B, and Zeocin resistance, respectively. A HEK-293 cell line stably expressing the three GABAA receptor subunits was produced by transfection of the subunits one at a time.

[3] = essential tremor, cited from earlier work
[4] = HEK293, read-out: Emax, androstandiol enhancement of GABA mediated current
[5] = listed as 3beta-hydroxy-5alpha-pregnan-20-one

T1 sequence (P48169 36-554): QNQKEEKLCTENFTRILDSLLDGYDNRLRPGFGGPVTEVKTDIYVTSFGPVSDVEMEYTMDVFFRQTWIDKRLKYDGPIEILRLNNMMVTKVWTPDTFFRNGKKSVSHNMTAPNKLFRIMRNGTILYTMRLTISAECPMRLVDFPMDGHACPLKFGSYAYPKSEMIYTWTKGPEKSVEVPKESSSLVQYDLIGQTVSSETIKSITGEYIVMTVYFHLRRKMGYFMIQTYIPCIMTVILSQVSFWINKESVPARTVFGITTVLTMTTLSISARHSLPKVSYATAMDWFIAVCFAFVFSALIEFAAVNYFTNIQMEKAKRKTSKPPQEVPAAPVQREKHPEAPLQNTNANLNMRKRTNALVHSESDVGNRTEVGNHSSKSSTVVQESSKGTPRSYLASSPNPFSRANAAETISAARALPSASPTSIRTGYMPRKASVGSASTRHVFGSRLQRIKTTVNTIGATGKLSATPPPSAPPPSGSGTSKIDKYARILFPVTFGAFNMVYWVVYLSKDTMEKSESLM
T1 sequence (P28472 26-473): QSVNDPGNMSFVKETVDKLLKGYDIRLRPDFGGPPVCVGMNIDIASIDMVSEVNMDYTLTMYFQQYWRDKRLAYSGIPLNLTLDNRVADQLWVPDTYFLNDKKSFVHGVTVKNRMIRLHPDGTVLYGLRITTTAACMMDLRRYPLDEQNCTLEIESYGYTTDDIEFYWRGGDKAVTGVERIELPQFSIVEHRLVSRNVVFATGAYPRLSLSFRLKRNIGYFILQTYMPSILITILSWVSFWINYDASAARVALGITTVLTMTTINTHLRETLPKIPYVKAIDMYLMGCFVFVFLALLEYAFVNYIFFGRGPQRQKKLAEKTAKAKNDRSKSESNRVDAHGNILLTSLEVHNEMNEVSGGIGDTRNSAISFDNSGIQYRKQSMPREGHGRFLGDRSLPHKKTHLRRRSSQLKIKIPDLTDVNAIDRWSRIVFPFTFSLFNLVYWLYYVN
T1 sequence (O14764 17-452 partner limits assumed): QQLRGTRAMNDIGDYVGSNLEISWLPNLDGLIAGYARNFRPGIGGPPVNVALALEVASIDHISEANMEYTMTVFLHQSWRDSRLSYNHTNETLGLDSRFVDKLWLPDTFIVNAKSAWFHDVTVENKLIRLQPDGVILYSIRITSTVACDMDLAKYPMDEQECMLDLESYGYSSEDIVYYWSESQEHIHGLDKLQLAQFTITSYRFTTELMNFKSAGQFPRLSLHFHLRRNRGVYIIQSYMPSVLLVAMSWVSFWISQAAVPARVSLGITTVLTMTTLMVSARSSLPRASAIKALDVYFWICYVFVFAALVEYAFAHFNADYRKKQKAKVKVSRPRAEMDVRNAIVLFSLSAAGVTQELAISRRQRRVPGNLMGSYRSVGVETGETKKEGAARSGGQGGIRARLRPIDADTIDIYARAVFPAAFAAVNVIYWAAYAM
T2 sequence (P14867 28-456): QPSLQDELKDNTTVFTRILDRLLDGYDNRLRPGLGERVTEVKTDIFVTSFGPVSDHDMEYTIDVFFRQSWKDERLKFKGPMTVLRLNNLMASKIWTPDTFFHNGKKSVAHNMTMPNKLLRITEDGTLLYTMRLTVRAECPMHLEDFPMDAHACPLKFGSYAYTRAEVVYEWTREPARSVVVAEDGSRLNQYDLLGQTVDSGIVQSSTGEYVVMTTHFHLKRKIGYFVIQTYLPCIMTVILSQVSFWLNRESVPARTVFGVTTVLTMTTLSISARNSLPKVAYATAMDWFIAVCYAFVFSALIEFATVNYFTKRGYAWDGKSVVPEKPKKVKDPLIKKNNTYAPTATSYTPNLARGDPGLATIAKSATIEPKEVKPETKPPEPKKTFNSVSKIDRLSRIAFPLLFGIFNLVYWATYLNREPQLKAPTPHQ
T2 sequence (P47870 26-512): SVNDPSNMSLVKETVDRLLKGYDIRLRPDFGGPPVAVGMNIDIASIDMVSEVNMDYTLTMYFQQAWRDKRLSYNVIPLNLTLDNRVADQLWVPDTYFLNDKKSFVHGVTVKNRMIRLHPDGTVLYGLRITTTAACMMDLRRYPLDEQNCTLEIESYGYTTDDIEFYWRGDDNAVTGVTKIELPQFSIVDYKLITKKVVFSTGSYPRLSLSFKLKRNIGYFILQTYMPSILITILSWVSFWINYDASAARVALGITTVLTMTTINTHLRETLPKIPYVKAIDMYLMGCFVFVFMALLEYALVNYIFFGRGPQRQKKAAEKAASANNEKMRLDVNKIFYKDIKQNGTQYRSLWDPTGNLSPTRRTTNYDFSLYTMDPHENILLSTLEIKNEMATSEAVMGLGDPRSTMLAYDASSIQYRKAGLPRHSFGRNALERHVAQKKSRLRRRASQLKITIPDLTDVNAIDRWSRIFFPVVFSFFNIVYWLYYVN
T2 sequence (P18507 40-475 partner): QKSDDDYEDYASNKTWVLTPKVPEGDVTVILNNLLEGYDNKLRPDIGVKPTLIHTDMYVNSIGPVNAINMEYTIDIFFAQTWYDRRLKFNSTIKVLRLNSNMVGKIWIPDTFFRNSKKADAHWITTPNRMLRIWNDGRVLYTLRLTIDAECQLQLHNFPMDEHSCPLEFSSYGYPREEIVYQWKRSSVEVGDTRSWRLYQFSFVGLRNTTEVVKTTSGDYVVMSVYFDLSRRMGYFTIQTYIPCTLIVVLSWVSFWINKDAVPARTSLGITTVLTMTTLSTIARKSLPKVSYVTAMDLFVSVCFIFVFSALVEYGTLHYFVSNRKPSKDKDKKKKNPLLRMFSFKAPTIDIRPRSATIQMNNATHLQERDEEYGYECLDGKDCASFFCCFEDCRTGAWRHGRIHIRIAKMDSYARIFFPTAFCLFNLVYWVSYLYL

C[C@]12CC[C@@H](O)C[C@@H]1CC[C@@H]1[C@@H]2CC[C@]2(C)C(O)CC[C@@H]12 (stereo partly drawn) [Androstandiol, 3alpha-hydroxy-5alpha-androstan-17-ol]
Potency at alpha4,beta3,delta relative to alpha1,beta2,gamma2 (higher) ([1]; 0.38 μM vs. 3.4 μM): 10 times
Androstandiol baseline shift, current response in absence of GABA ([1]; 3 μM androstandiol, no GABA, Mean ± SEM): +8 ± 3.6 pA
Androstandiol baseline shift, current response in absence of GABA ([1]; 10 μM androstandiol, no GABA, Mean ± SEM): +13 ± 4.8 pA
Emax [1, 4]: 142%
Androstandiol effect by itself (baseline shift), current response in absence of GABA ([2]; 3 μM androstandiol, Mean ± SEM): +8 ± 3.6 pA
Androstandiol effect by itself (baseline shift), current response in absence of GABA ([2]; 8 μM androstandiol, Mean ± SEM): +13 ± 2.3 pA
Androstandiol effect by itself (baseline shift), current response in absence of GABA ([2]; 10 μM androstandiol, Mean ± SEM): +11 ± 1.5 pA
Androstandiol effect by itself (baseline shift), current response in absence of GABA ([2]; 30 μM androstandiol, Mean ± SEM): +24 ± 6.8 pA
Androstandiol effect by itself (baseline shift), current response in absence of GABA ([2]; 100 μM androstandiol, Mean ± SEM): +43 ± 5.7 pA
Emax [2, 4]: 281%
Potency relative to THDOC in enhancing the effect of GABA (less potent) ([2]; androstandiol vs THDOC): 48 times

C[C@]12CC[C@@H](O)C[C@H]1CC[C@@H]1[C@@H]2CC[C@]2(C)[C@@H](C(=O)CO)CC[C@@H]12 [THDOC, Tetrahydrodeoxycorticosterone]
THDOC baseline shift, current response in absence of GABA ([1]; 0.03 μM THDOC, no GABA, Mean ± SEM): +5 ± 3.3 pA
THDOC baseline shift, current response in absence of GABA ([1]; 0.1 μM THDOC, no GABA, Mean ± SEM): +15 ± 9.5 pA
THDOC baseline shift, current response in absence of GABA ([1]; 0.3 μM THDOC, no GABA, Mean ± SEM): +12 ± 7.9 pA
THDOC baseline shift, current response in absence of GABA ([1]; 1 μM THDOC, no GABA, Mean ± SEM): +69 ± 35 pA
Emax, THDOC enhancement of GABA mediated current ([1]; 3 μM GABA): 297%
EC50 ([1]; read-out: EC50, THDOC enhancement of GABA mediated current, 3 μM GABA): 47 nM
Imax/Emax, THDOC enhancement of GABA mediated current ([2]; 0.03-1 μM THDOC + 30 μM GABA, control 30 μM GABA set to 0): +115%

CCC1(c2ccccc2)C(=O)NCNC1=O [Primidone, primidone]
Reduction of tremor scores [3]: 35-50%

CCO [Alcohol]
Reduction in tremor scores ([3]; only during a short period (30 minutes) with a rebound later): 50%

Cc1nnc2n1-c1ccc(Cl)cc1C(c1ccccc1)=NC2 [alprazolam]
Reduction of tremor scores [3]: 25%

CC(=O)[C@H]1CC[C@H]2[C@@H]3CC[C@H]4C[C@@H](O)CC[C@]4(C)[C@H]3CC[C@]12C [UC1010, 3beta-hydroxy-5alpha-pregnan-20-one]
Effect of 1 μM UC1010 on 3 μM GABA response ([1]; 1 μM UC1010, 3 μM GABA, Mean ± SEM, N=11, NS): −6.7 ± 3.3%
Effect of 1 μM UC1010 on 0.6 μM Androstandiol + 3 μM GABA ([1]; 1 μM UC1010, Mean ± SEM): −18 ± 2.0%
Effect of 1 μM UC1010 on 0.8 μM Androstandiol + 3 μM GABA ([1]; 1 μM UC1010, Mean ± SEM): −22 ± 2.6%
Effect of 1 μM UC1010 on 0.1 μM THDOC alone baseline ([1]; 1 μM UC1010, THDOC induced baseline shift without GABA, Mean ± SEM): −43 ± 3.5%
Effect of UC1010 on GABA-mediated current response, GABA alone (in words) ([1]; 1 μM UC1010, data not shown): without any significant effect
Effect of 1 μM UC1010 on 0.1 μM THDOC + 3 μM GABA ([1]; 1 μM UC1010, steady state, Mean ± SEM): −26 ± 2.4%
Effect of the compound by itself, current response ([1]; 1 μM, no GABA, no THDOC, N=11, NS vs EC solution): −0.4±0.3 pA
Antagonism of THDOC enhanced GABA effect, single dose [2]: −21 ± 4.6%
Antagonism of THDOC enhanced GABA effect, single dose [2, 5]: −22.3±5.3%
Modulatory effect of UC1010 on GABA response ([2]; 1 μM UC1010 + 30 μM GABA, vs GABA alone, NS, n=9): 10.3±7.8%
Effect of 1 μM UC1010 on 8 μM Androstandiol + 30 μM GABA ([2]; 1 μM UC1010, steady state (phasic effect), Mean ± SEM): −30 ± 1.7%
Effect of 1 μM UC1010 on 8 μM Androstandiol, baseline shift ([2]; 1 μM UC1010, tonic effect without GABA, Mean ± SEM): −33 ± 7.6%
Imax, maximal antagonism of THDOC effect in concentration-dependent experiment [2]: −21%
Imax, maximal antagonism of THDOC effect in concentration-dependent experiment [2, 5]: −21±4.6%
